Where “and” joins values, the source holds several entries; their conditions need not be identical. Equal entries are not always repeated. Structures can show the parent of a compound that is named as a salt. Where two headings read alike, the source gives them in different places.
What was measured:
p52 = molecular target: T1, p52 (Homo sapiens, UniProt Q00653); assay: DSE-FRET p52–DNA binding inhibition; assay type: biochemical; set-up: p52 Retest % Inhibition Run2 / p52 Retest % Inhibition Avg. / Kinetic assay p52 Inhibition % ΔRFU(60 min-0 min) / p52 HTS % Inhibition / p52 Retest % Inhibition Run1: dose or concentration left out as unconfirmed; conditions: for p52 Retest % Inhibition Avg.: Retest average of Run1 and Run2
T1 sequence (Q00653 1-454 limits assumed): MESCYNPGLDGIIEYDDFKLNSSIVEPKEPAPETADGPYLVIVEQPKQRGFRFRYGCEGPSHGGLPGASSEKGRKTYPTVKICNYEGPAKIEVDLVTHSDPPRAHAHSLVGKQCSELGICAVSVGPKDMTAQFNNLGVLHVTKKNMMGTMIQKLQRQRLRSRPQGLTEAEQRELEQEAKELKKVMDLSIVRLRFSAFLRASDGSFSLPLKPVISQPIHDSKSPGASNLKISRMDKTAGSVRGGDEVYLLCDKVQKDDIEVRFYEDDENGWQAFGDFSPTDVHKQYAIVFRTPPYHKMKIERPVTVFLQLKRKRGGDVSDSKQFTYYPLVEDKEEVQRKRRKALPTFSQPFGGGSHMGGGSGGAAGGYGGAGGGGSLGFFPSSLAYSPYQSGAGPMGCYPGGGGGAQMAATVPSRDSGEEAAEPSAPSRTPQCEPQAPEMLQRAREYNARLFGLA

RelA = RelA (Homo sapiens, UniProt Q04206); assay: DSE-FRET RelA–DNA binding inhibition; assay type: biochemical; set-up: Kinetic assay RelA Inhibition % ΔRFU(60 min-0 min) / RelA HTS % Inhibition / RelA Retest % Inhibition Run1 / RelA Retest % Inhibition Run2 / RelA Retest % Inhibition Avg. / Kinetic assay RelA % Inhibition ΔRFU(60 min-0 min): dose or concentration left out as unconfirmed; conditions: for RelA Retest % Inhibition Avg.: Retest average of Run1 and Run2
Description: Plate-based (384 scale) DNA-binding experiments were carried out with 0.1 µL of 2 mM or 1 mg/mL compound, 2 µL of 80 nM NF-D1 (consisting of NF-01F and NF-14D), 1 µL of 20 ng/µL poly dI-dC, and 6.9 µL of 3.2 pmol protein in binding buffer (10 mM 4-(2-hydroxyethyl)-1-piperazineethanesulfonic acid (HEPES)–NaOH pH 7.9, 50 mM KCl, 0.1 mM ethylenediaminetetraacetic acid (EDTA), 2.5 mM dithiothreitol (DTT), 10% glycerol, and 0.05% Nonidet P40). The plates were incubated for 30 min at room temperature, after which 10 µL of NF-D2 (consisting of NF-02 and NF-13) was added. The plates were centrifuged at 1000 rpm for 30 s, followed by shaking for 30 s using a plate shaker (Biotec). Fluorescence was measured at 528 nm, after excitation at 485 nm, using a multiplate reader (Biotec) over a period of 60 min.

[1] = HTS, known drugs, 10 µM, read-out: p52 HTS % Inhibition @ 10 µM
[2] = kinetic assay, 60 min-0 min, 10 µM, read-out: Kinetic assay @ 10 µM p52 % Inhibition ΔRFU(60 min-0 min)
[3] = retest, Run1, 10 µM, read-out: p52 Retest % Inhibition @ 10 µM Run1
[4] = retest, Run2, 10 µM, read-out: p52 Retest % Inhibition @ 10 µM Run2
[5] = retest, average of Run1 and Run2, 10 µM, read-out: p52 Retest % Inhibition @ 10 µM Avg.
[6] = HTS, known drugs, 10 µM, read-out: RelA HTS % Inhibition @ 10 µM
[7] = kinetic assay, 60 min-0 min, 10 µM, read-out: Kinetic assay @ 10 µM RelA % Inhibition ΔRFU(60 min-0 min)
[8] = retest, Run1, 10 µM, read-out: RelA Retest % Inhibition @ 10 µM Run1
[9] = retest, Run2, 10 µM, read-out: RelA Retest % Inhibition @ 10 µM Run2
[10] = retest, average of Run1 and Run2, 10 µM, read-out: RelA Retest % Inhibition @ 10 µM Avg.
[11] = retest of known drugs, 1 = judged hit
[12] = kinetic assay, ΔRFU 60 min-0 min

RelA, sequence (Q04206 19-306 limits assumed): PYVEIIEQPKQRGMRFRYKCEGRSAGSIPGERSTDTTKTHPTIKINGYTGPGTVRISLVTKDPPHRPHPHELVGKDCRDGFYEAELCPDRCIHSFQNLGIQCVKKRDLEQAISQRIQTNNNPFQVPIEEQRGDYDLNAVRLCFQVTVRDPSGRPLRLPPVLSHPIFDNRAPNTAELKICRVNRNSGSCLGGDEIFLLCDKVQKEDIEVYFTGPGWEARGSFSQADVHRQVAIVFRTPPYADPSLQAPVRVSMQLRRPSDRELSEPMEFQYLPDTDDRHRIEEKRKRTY

Row | Structure (SMILES) | Kinetic assay p52 % Inhibition ΔRFU(60 min-0 min) (p52; kinetic assay, 60 min-0 min) | Kinetic assay RelA % Inhibition ΔRFU(60 min-0 min) (RelA; kinetic assay, 60 min-0 min) | inhibition at 10 µM (p52; [1]) [%] | inhibition at 10 µM (p52; [2]) [%] | inhibition at 10 µM (p52; [3]) [%] | inhibition at 10 µM (p52; [4]) [%] | inhibition at 10 µM (p52; [5]) [%] | inhibition at 10 µM (RelA; [6]) [%] | inhibition at 10 µM (RelA; [7]) [%] | inhibition at 10 µM (RelA; [8]) [%] | inhibition at 10 µM (RelA; [9]) [%] | inhibition at 10 µM (RelA; [10]) [%] | also measured
1 | OCCN(CCO)c1nc(N2CCCCC2)c2nc(N(CCO)CCO)nc(N3CCCCC3)c2n1 [Dipyridamole] | -0.806% and -5% | -4.24% and -5.31% | – | – | – | – | – | – | – | – | – | – | –
2 | COc1cccc2c1C(=O)c1c(O)c3c(c(O)c1C2=O)C[C@@](O)(C(=O)CO)C[C@@H]3O[C@H]1C[C@H](N)[C@H](O)[C@H](C)O1 [Doxorubicin hydrochloride] | -15% and -17% | -15% | – | – | – | – | – | – | – | – | – | – | –
3 | COc1cccc2c1C(=O)c1c(O)c3c(c(O)c1C2=O)C[C@@](O)(C(=O)CO)C[C@@H]3O[C@H]1C[C@H](N)[C@@H](O)[C@H](C)O1 [EPIRUBICIN HYDROCHLORIDE] | – | – | 88.4 | -11 | 77.2 | 88.8 | 83 | 82.2 | -11 | 77.3 | 88.4 | 82.9 | –
4 | Cc1cc(-c2ccc(/N=N/c3ccc4c(S(=O)(=O)O)cc(S(=O)(=O)O)c(N)c4c3O)c(C)c2)ccc1/N=N/c1ccc2c(S(=O)(=O)O)cc(S(=O)(=O)O)c(N)c2c1O [EVANS BLUE] | – | – | 24 | 2.44 | 62.3 | 35.8 | 49 | 78.1 | 4.59 | 70.4 | 77.2 | 73.8 | –
5 | O=C1Nc2ccc(I)cc2/C1=C/c1cc(Br)c(O)c(Br)c1 [GW 5074] | -18% | -17% | – | – | – | – | – | – | – | – | – | – | –
6 | Cl[C@H]1[C@H](Cl)[C@@H](Cl)[C@@H](Cl)[C@H](Cl)[C@H]1Cl [LINDANE] | – | – | 31.4 | -1.69 | 5.5 | 6.4 | 5.9 | 29.3 | -1.86 | 6.1 | 5.6 | 5.9 | –
7 | O=C1C(Cl)=C(NCCN2CCOCC2)C(=O)c2ncccc21 [NSC 663284] | 1.64% | 9% | – | – | – | – | – | – | – | – | – | – | p52 HTS % Inhibition (p52; HTS, known drugs): 39.5%; p52 Retest % Inhibition Run1 (p52): 24.9%; p52 Retest % Inhibition Run2 (p52): 28.6%; p52 Retest % Inhibition Avg. (p52): 26.7%; Hit Judgement of: p52 (p52; [11]): 1; RelA HTS % Inhibition (RelA; HTS, known drugs): 37.5%; RelA Retest % Inhibition Run1 (RelA): 37.2%; RelA Retest % Inhibition Run2 (RelA): 41.8%; RelA Retest % Inhibition Avg. (RelA): 39.5%; Hit Judgement of: RelA (RelA; [11]): 1
8 | COC(=O)[C@@H]1c2cc3c(c(O)c2[C@@H](O[C@@H]2O[C@@H](C)[C@H](OC)[C@@](C)(OC)[C@H]2OC)C[C@]1(C)O)C(=O)c1c(O)cc2c(c1C3=O)O[C@@H]1O[C@@]2(C)[C@H](O)[C@@H](N(C)C)[C@@H]1O [Nogalamycin] | – | – | – | – | – | – | – | – | – | – | – | – | inhibition at 5 µg/mL (p52; HTS, 5 µg/mL, NPDepo hits, read-out: p52 HTS % Inhibition @ 5 µg/mL): 127%; inhibition at 5 µg/mL (p52; Retest Run1, 5 µg/mL, read-out: p52 Retest % Inhibition @ 5 µg/mL Run1): 132%; inhibition at 5 µg/mL (p52; Retest Run2, 5 µg/mL, read-out: p52 Retest % Inhibition @ 5 µg/mL Run2): 145%; inhibition at 5 µg/mL (p52; Retest average of Run1 and Run2, 5 µg/mL, read-out: p52 Retest % Inhibition @ 5 µg/mL Avg.): 139%; inhibition at 5 µg/mL (p52; kinetic assay, 5 µg/mL, ΔRFU 60 min-0 min, read-out: Kinetic assay @ 5 µg/mL p52 Inhibition % ΔRFU(60 min-0 min)): -13%; inhibition at 5 µg/mL (RelA; HTS, 5 µg/mL, NPDepo hits, read-out: RelA HTS % Inhibition @ 5 µg/mL): 128%; inhibition at 5 µg/mL (RelA; Retest Run1, 5 µg/mL, read-out: RelA Retest % Inhibition @ 5 µg/mL Run1): 138%; inhibition at 5 µg/mL (RelA; Retest Run2, 5 µg/mL, read-out: RelA Retest % Inhibition @ 5 µg/mL Run2): 146%; inhibition at 5 µg/mL (RelA; Retest average of Run1 and Run2, 5 µg/mL, read-out: RelA Retest % Inhibition @ 5 µg/mL Avg.): 142%; inhibition at 5 µg/mL (RelA; kinetic assay, 5 µg/mL, ΔRFU 60 min-0 min, read-out: Kinetic assay @ 5 µg/mL RelA Inhibition % ΔRFU(60 min-0 min)): -20%
9 | Cc1[nH]c(/C=C2\C(=O)Nc3ccc(S(=O)(=O)Cc4c(Cl)cccc4Cl)cc32)c(C)c1C(=O)N1CCC[C@@H]1CN1CCCC1 [PHA 665752] | – | – | 103 | -31 | 88 | 99.8 | 93.9 | 101 | -27 | 88.6 | 99.1 | 93.9 | –
10 | Nc1ccc2nc3ccc(N)cc3[n+](-c3ccccc3)c2c1.[Cl-] [Phenosafranin] | – | – | – | – | – | – | – | – | – | – | – | – | p52 HTS % Inhibition (p52; HTS, NPDepo hits): 86.7%; p52 Retest % Inhibition Run1 (p52): 78.7%; p52 Retest % Inhibition Run2 (p52): 85.1%; p52 Retest % Inhibition Avg. (p52): 81.9%; Kinetic assay p52 Inhibition % ΔRFU(60 min-0 min) (p52; [12]): -3.56%; RelA HTS % Inhibition (RelA; HTS, NPDepo hits): 99.3%; RelA Retest % Inhibition Run1 (RelA): 77.2%; RelA Retest % Inhibition Run2 (RelA): 83.4%; RelA Retest % Inhibition Avg. (RelA): 80.3%; Kinetic assay RelA Inhibition % ΔRFU(60 min-0 min) (RelA; [12]): -12%

— publication PMC7734590, “Identification of a Selective RelA Inhibitor Based on DSE-FRET Screening Methods” (International Journal of Molecular Sciences, 2020)
